According to patent US20080199485A1 (priority 2007, published 2008):
“Also recorded” adds a separate entry of the source.

Assays:
[1] = system: TCR-transgenic gp33-specific T cells; format: cell-based, mouse
[2] = system: EL-4 cells pulsed with gp33 peptide; format: cell-based, mouse

Sequence: KAVYNFATM [gp33]
- IFN-γ production [1]: transiently produced at an early stage
- IFN-γ secretion [1]: higher amounts of IFN-gamma
- IL-10 production [1]: high amounts of IL-10 with an earlier onset
- CTL response [2]: strongest CTL response; also recorded: weaker CTL responses
